system: Plasmodium falciparum; experiment: Inhibition of Plasmodium falciparum DXR at 20 uM using DOXP as substrate preincubated for 5 mins followed by substrate addition measured for 10 mins in presence of NADPH by spectrophotometric analysis; conditions: not given

`O=C(CCP(=O)(O)O)N(Cc1ccccc1)c1cccc(O)c1` and `O=C(CCP(=O)(O)O)N(Cc1ccccc1)c1ccccn1` are the same in inhibition: 0% for the first, 0% for the second.

Going from `C#CCNC(=O)CCP(=O)(O)O` to `CC(=O)N(O)CCCP(=O)(O)O`, the inhibition rises from 6.7% to 73.3%.

system: not listed separately; experiment: Cytotoxicity against human HeLa cells assessed as cell viability at 20 uM after 24 hrs by resazurin based fluorescence assay relative to control; assay type: toxicity; conditions: read-out: Activity

Compared with `CCOP(=O)(CCC(=O)N(Cc1ccccc1)c1cccc(Br)c1)OCC`, `CCOP(=O)(CCC(=O)N(Cc1ccccc1)c1cccc(O)c1)OCC` is lower in viability at 24 h, 20 µM: 121% for the first, 120% for the second.

Compared with `CCOP(=O)(CCC(=O)N(Cc1ccccc1)c1cccc(CO)c1)OCC`, `CCOP(=O)(CCC(=O)N(Cc1ccccc1)c1cccc([N+](=O)[O-])c1)OCC` is higher in viability at 24 h, 20 µM: 110% for the first, 118% for the second.

Going from `CCOP(=O)(CCC(=O)Nc1cccc(OCc2ccccc2)c1)OCC` to `CCOP(=O)(CCC(=O)N(Cc1ccccc1)c1cccc(OCc2ccccc2)c1)OCC`, the viability at 24 h, 20 µM rises from 105% to 108%.

Going from `CCOP(=O)(CC(=O)Nc1cccc([N+](=O)[O-])c1)OCC` to `CCOP(=O)(CC(=O)Nc1cccc(O)c1)OCC`, the viability at 24 h, 20 µM rises from 83.1% to 117%.

First: C#CCNC(=O)CCP(=O)(OCC)OCC
Second: C#CCNC(=O)CP(=O)(OCC)OCC
The viability at 24 h, 20 µM of the first is lower: 92% for the first, 104% for the second.

Compared with `CCOP(=O)(CC(=O)Nc1cccc(CO)c1)OCC`, `CCOP(=O)(CC(=O)Nc1cccc(Br)c1)OCC` is lower in viability at 24 h, 20 µM: 123% for the first, 102% for the second.

Going from `CCOP(=O)(CCC(=O)N(Cc1ccccc1)c1ccccn1)OCC` to `CCOP(=O)(CC(=O)Nc1ccccn1)OCC`, the viability at 24 h, 20 µM rises from 113% to 131%.

Going from `CCOP(=O)(CCC(=O)Nc1cccc(O)c1)OCC` to `CCOP(=O)(CC(=O)Nc1cccc(O[Si](C)(C)C(C)(C)C)c1)OCC`, the viability at 24 h, 20 µM falls from 119% to 85.7%.

system: Plasmodium falciparum; experiment: Antimalarial activity against Plasmodium falciparum 3D7 infected in human erythrocytes assessed as cell viability at 20 uM after 48 hrs by lactate dehydrogenase assay; assay type: functional; conditions: not given

Going from `CCOP(=O)(CCC(=O)N(Cc1ccccc1)c1cccc(Br)c1)OCC` to `CCOP(=O)(CCC(=O)N(Cc1ccccc1)c1cccc(O)c1)OCC`, the Activity falls from 35.19% to -8.05%.

Going from `CCOP(=O)(CCC(=O)N(Cc1ccccc1)c1cccc(CO)c1)OCC` to `CCOP(=O)(CCC(=O)N(Cc1ccccc1)c1cccc([N+](=O)[O-])c1)OCC`, the Activity rises from 55.44% to 59.6%.

Going from `CCOP(=O)(CCC(=O)Nc1cccc(OCc2ccccc2)c1)OCC` to `CCOP(=O)(CCC(=O)N(Cc1ccccc1)c1cccc(OCc2ccccc2)c1)OCC`, the Activity falls from 51.13% to 6.84%.

Going from `CCOP(=O)(CC(=O)Nc1cccc([N+](=O)[O-])c1)OCC` to `CCOP(=O)(CC(=O)Nc1cccc(O)c1)OCC`, the Activity falls from 64.13% to 52.42%.

First: C#CCNC(=O)CCP(=O)(OCC)OCC
Second: C#CCNC(=O)CP(=O)(OCC)OCC
The Activity of the first is lower: -4.04% for the first, 47.96% for the second.

Going from `CCOP(=O)(CC(=O)Nc1cccc(CO)c1)OCC` to `CCOP(=O)(CC(=O)Nc1cccc(Br)c1)OCC`, the Activity rises from -7.26% to 50.91%.

Going from `CCOP(=O)(CCC(=O)N(Cc1ccccc1)c1ccccn1)OCC` to `CCOP(=O)(CC(=O)Nc1ccccn1)OCC`, the Activity falls from -5.33% to -19.39%.

Going from `CCOP(=O)(CCC(=O)Nc1cccc(O)c1)OCC` to `CCOP(=O)(CC(=O)Nc1cccc(O[Si](C)(C)C(C)(C)C)c1)OCC`, the Activity rises from 54.54% to 61.87%.

system: Plasmodium falciparum; experiment: Antimalarial activity against Plasmodium falciparum 3D7 infected in human erythrocytes after 48 hrs by lactate dehydrogenase assay; assay type: functional, cell-based; conditions: 3D7, 48 h

First: CCOP(=O)(CCC(=O)N(Cc1ccccc1)c1cccc(O)c1)OCC
Second: CCOP(=O)(CCC(=O)N(Cc1ccccc1)c1ccccn1)OCC
The IC50 of the first is lower: 15.8 to 15.9 µM for the first, 22.3 µM for the second.

`C#CCNC(=O)CCP(=O)(OCC)OCC` and `CCOP(=O)(CC(=O)Nc1ccccn1)OCC` are within 1.5-fold of each other in IC50: 20.1 µM for the first, 23.1 µM for the second.

Compared with `CCOP(=O)(CC(=O)Nc1cccc(CO)c1)OCC`, `CCOP(=O)(CCC(=O)N(Cc1ccccc1)c1cccc(OCc2ccccc2)c1)OCC` is 1.6-fold higher in IC50: 10.1 µM for the first, 16.4 µM for the second. The first is the more potent here.

— ChEMBL document CHEMBL3862027, “Synthesis and antimalarial activity of N-benzylated (N-arylcarbamoyl)alkylphosphonic acid derivatives” (Bioorg Med Chem, 2016)
